ChEMBL document CHEMBL1129339, “Mapping the aspartic acid binding site of Escherichia coli asparagine synthetase B using substrate analogs” (J Med Chem, 1996)

Tests used:
[1] = tested on: Asparagine synthetase B (Escherichia coli); experiment: Noncompetitive Inhibition constant of Asparagine synthetase of Glutamine-Dependent Synthetase Activity using ATP as substrate
[2] = tested on: Asparagine synthetase B (Escherichia coli); experiment: Noncompetitive Inhibition constant of Asparagine synthetase of Glutamine-Dependent Synthetase Activity using glutamine as substrate
[3] = tested on: Asparagine synthetase B (Escherichia coli); experiment: Noncompetitive Inhibition constant of Asparagine synthetase of Glutamine-Dependent Synthetase Activity using aspartate as substrate
[4] = tested on: Asparagine synthetase B (Escherichia coli); experiment: Non competitive Inhibition constant of Asparagine synthetase of Glutamine-Dependent Synthetase Activity using ATP as substrate
[5] = tested on: Asparagine synthetase B (Escherichia coli); experiment: Non competitive Inhibition constant of Asparagine synthetase of Glutamine-Dependent Synthetase Activity using glutamine as substrate
[6] = tested on: Asparagine synthetase B (Escherichia coli); experiment: Competitive Inhibition constant of Asparagine synthetase of Glutamine-Dependent Synthetase Activity using aspartate as substrate
[7] = tested on: Asparagine synthetase B (Escherichia coli); experiment: Uncompetitive Inhibition constant of Asparagine synthetase of Glutamine-Dependent Synthetase Activity using glutamine as substrate

Kii [1] [mM] | Kis [1] [mM] | Kii [2] [mM] | Kis [2] [mM] | Kii [3] [mM] | Kis [3] [mM] | Kii [4] [mM] | Kis [4] [mM] | Kii [5] [mM] | Kis [5] [mM] | Kis [6] [mM] | Kii [7] [mM] | SMILES
15 | 8 | 16.5 | 93 | > 50 | 18 | – | – | – | – | – | – | C[C@H](C(=O)O)[C@H](N)C(=O)O
– | – | – | – | – | – | 3.28 | 0.45 | 1.71 | 1.62 | 0.25 | – | C[C@@H](C(=O)O)[C@H](N)C(=O)O (single isomer, unassigned)
4.8 | 2.65 | – | – | – | – | – | – | – | – | 2.65 | 2.57 | O=C(O)[C@H]1NCC[C@H]1C(=O)O
